# Experimental data taken from patent EP1082127B1 (WARNER-LAMBERT COMPANY LLC, priority 1998, dated 1999).
# Counter-ions that a name gives are not always drawn.
# Experiments:
# ICE [1] = target: T1, ICE (Homo sapiens, UniProt P29466); assay: ICE inhibition, Ki determination (fluorogenic substrate Ac-Tyr-Val-Ala-Asp-AMC); format: biochemical; settings: 15 µM Ac-Tyr-Val-Ala-Asp-AMC, 0.5 nM enzyme, 30°C, reversible competitive model
# T1 sequence (P29466 120-297 limits assumed): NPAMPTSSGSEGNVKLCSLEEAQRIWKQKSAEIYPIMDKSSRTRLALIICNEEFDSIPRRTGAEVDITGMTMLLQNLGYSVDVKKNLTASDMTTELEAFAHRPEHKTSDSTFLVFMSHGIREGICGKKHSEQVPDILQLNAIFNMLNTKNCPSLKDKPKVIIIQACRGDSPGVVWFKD
# T1 sequence (P29466 317-404 limits assumed): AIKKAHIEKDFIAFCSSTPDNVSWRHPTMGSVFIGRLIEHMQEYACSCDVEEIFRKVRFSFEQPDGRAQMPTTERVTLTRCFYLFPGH
# Protocol: Serial dilutions of each compound of the invention are prepared using an initial 8-fold dilution of a DMSO stock into HGE (100 mM HEPES, 20% glycerol v/v, 0.5 mM EDTA), followed by seven serial 2-fold dilutions into HGE + 12.5% DMSO. Ten microliters of diluted stocks or of vehicle (HGE + 12.5% DMSO) are placed in triplicate onto a 96-well microtiter plate. Enzyme is diluted into assay buffer (HGE, 5 mM DTT, 15 µM Ac-Tyr-Val-Ala-Asp-AMC; 0.5 nM final enzyme concentration, pre-warmed to 30°C), and this reaction mixture is added to the plate at 90 µL/well. Substrate hydrolysis is monitored for 300 seconds at 30°C using 385 and 460 nm excitation and emission filters, respectively. Triplicate curves are averaged, and slopes are evaluated by linear regression. To evaluate Ki, plots of percent inhibition vs inhibitor concentration are fit by non-linear regression to a reversible, competitive model: [formula] where the competition factor is (1 + [S]/KM) = 2.
# ICE [2] = target: T1, ICE; assay: ICE Colorimetric Dose-Response (IC50) Assay; format: biochemical; settings: 60 minutes preincubation, 50 µM Ac-Tyr-Val-Ala-Asp-pNA, 25°C
# Protocol: (§1) Diluted inhibitor stocks are prepared by two-fold serial dilution from a primary stock whose concentration is selected (based on screening results or on prior attempts at IC50 evaluation) to achieve approximately 95% inhibition in the most concentrated well. Aliquots of each dilution are transferred to a microtitre plate in triplicate.
# (§2) ICE enzyme is diluted to approximately 24 nM in HGE buffer (100 mM Hepes pH 7.5, 0.5 mM EDTA, 20% glycerol, 0.1% Bovine Serum Albumin (BSA), and activated by adding dithiothreitol (DTT) to a final concentration of 5 mM. The activated enzyme is then aliquoted into wells containing inhibitor or vehicle, and the plate is preincubated for 60 minutes at ambient temperature. Substrate (Ac-Tyr-Val-Ala-Asp-pNA) is added to each well to a final concentration of 50 µM, and plates are placed in the microtitre plate-reader thermostated to 25°C. Beginning 5 minutes after addition of substrate, absorbance (405 nm) of wells is monitored for 1 hour, and activity is calculated as the mean rate of change in absorbance during this interval.
# [3] = test system: IL-1β production in human peripheral blood mononuclear cells (PBMCs); assay: PBMC Cellular Assay - IC50 Determinations (LPS-stimulated IL-1β production, ELISA); format: cell-based; settings: human PBMCs stimulated overnight with 10 ng/mL LPS, mature IL-1β by ELISA
# From the text: Further evidence that compounds of Formula I are inhibitors of ICE is provided by their ability to inhibit IL-1β production in human peripheral blood mononuclear cells (PBMCs) as described herein. PBMCs are isolated from heparinized blood by centrifugation over a ficoll cushion, then washed three times with phosphate-buffered saline. PBMCs are suspended in a medium containing RPMI 1640 with glutamine, penicillin, streptomycin, and 2% human AB serum, then plated at 10^6 cells per well in 96-well flat bottom plates. PBMCs are stimulated overnight with 10 ng/mL of lipopolysaccharide (LPS, E. coli strain 0111:B4; Calbiochem) in the presence or absence of a compound of Formula I. Medium is harvested, and the level of mature IL-1β was determined using an ELISA kit from R&D Systems. Cells were cultured for an additional 4 hours in the presence of 3-(4,5-dimethylthiazol-2-yl)-2,5-diphenyltetrazolium bromide (MTT) to determine viability.
# Ich-2 enzyme = target: T2, Ich-2 enzyme (Homo sapiens, UniProt P49662); assay: Ich-2 Colorimetric Dose-Response (IC50) Assay; format: biochemical; settings: enzyme 64 nM, 60 µM Ac-Leu-Glu-Val-Asp-pNA; read-out: ICH2 IC50 (Caspase 4)
# T2 sequence (P49662 81-270 limits assumed): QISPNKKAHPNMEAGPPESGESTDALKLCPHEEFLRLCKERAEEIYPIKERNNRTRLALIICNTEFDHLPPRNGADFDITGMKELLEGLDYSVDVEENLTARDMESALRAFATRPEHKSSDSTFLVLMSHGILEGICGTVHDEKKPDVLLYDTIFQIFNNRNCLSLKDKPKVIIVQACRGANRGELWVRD
# T2 sequence (P49662 290-377 limits assumed): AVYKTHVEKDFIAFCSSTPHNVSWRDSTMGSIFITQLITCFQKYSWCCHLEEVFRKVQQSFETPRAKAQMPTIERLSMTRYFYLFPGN
# Protocol: as §1, §2
# Inhibition of Ich-2 enzyme is assayed as described above for ICE, except that enzyme is used at 64 nM, and 60 µM of the Ich-2-specific substrate Ac-Leu-Glu-Val-Asp-pNA is used instead of the ICE substrate Ac-Tyr-Val-Ala-Asp-pNA.
SMILES,Ki (ICE [1]),IC50 (ICE [2]),IC50 (Ich-2 enzyme),IC50 [3]
"Cc1cccc2c(CCNC(=O)CC(C(=O)NC(CC(=O)O)C(=O)CNS(=O)(=O)CC34CCC(CC3=O)C4(C)C)C(C)C)c[nH]c12 (centres unmarked) [Example 19, 5-(7,7-Dimethyl-2-oxo-bicyclo[2.2.1]hept-1-ylmethanesulfonylamino)-3-(3-methyl-2-{(2-(7-methyl-1H-indol-3-yl)-ethylcarbamoyl]-methyl}-butyrylamino)-4-oxo-pentanoic acid]",0.9 nM,8.5 nM,2380 nM,400 nM
"CC(C)C(CC(=O)N(C)CCc1cn(C)c2ccccc12)C(=O)NC(C=O)CC(=O)O (centres unmarked) [Example 21, 3-[3-Methyl-2-({methyl-[2-(1-methyl-1H-indol-3-yl)-ethyl]-carbamoyl}-methyl)-butyrylamino]-4-oxo-butyric acid]",28 nM,130 nM,209000 nM,7500 nM
"Cc1cc2ncn(CCNC(=O)CC(C(=O)NC(C=O)CC(=O)O)C(C)C)c2cc1C (centres unmarked) [Example 23, 3-(2-{[2-(5,6-Dimethyl-benzoimidazol-1-yl)-ethylcarbamoyl]-methyl}-3-methyl-butyrylamino)-4-oxo-butyric acid, trifluoroacetate salt]",2.9 nM,14.5 nM,4430 nM,3600 nM
CC(C)[C@H](CC(=O)NCCc1cn(C)c2ccccc12)C(=O)NC(CC(=O)O)C(=O)CNS(=O)(=O)CC12CCC(CC1)C2(C)C (some centres unmarked) [Example 25],5.8 nM,48.3 nM,3540 nM,1100 nM
"CC(C)C(CC(=O)NCCCc1ccncc1)C(=O)NC(CC(=O)O)C(=O)CNS(=O)(=O)CC12CCC(CC1=O)C2(C)C (centres unmarked) [Example 26, 5-(7,7-Dimethyl-2-oxo-bicyclo[2.2.1]hept-1-ylmethanesulfonylamino)-3-{3-methyl-2-[(3-pyridin-4-yl-propylcarbamoyl)-methyl]-butyrylamino}-4-oxo-pentanoic acid]",26.6 nM,136 nM,9910 nM,2000 nM
"CC(C)C(CC(=O)NCCCc1cccc2ccccc12)C(=O)NC(CC(=O)O)C(=O)CNS(=O)(=O)CC12CCC(CC1=O)C2(C)C (centres unmarked) [Example 28, 5-(7,7-Dimethyl-2-oxo-bicyclo[2.2.1]hept-1-ylmethanesulfonylamino)-3-{3-methyl-2-[(3-naphthalen-1-yl-propylcarbamoyl)-methyl]-butyrylamino}-4-oxo-pentanoic acid]",6.1 nM,254 nM,5580 nM,550 nM
"CC(C)C(CC(=O)NCCn1cnc2ccccc21)C(=O)NC(CC(=O)O)C(=O)CNS(=O)(=O)CC12CCC(CC1=O)C2(C)C (centres unmarked) [Example 30, 3-{2-[(2-Benzoimidazol-1-yl-ethylcarbamoyl)-methyl]-3-methyl-butyrylamino}-5-(7,7-dimethyl-2-oxo-bicyclo[2.2.1]hept-1-ylmethanesulfonylamino)-4-oxo-pentanoic acid]",1.1 nM,5.2 nM,3140 nM,410 nM
"CC(C)C(CC(=O)NCCc1ccncc1)C(=O)NC(CC(=O)O)C(=O)CNS(=O)(=O)CC12CCC(CC1=O)C2(C)C (centres unmarked) [Example 32, 5-(7,7-Dimethyl-2-oxo-bicyclo[2.2.1]hept-1-ylmethanesulfonylamino)-3-{3-methyl-2-[(2-pyridin-4-yl-ethylcarbamoyl)-methyl]-butyrylamino}-4-oxo-pentanoic acid]",26 nM,458 nM,14100 nM,3300 nM
"CC(=O)c1ccc2[nH]cc(CCNC(=O)CC(C(=O)NC(CC(=O)O)C(=O)CNS(=O)(=O)CC34CCC(CC3=O)C4(C)C)C(C)C)c2c1 (centres unmarked) [Example 33, 3-(2-{[2-(5-Acetyl-1H-indol-3-yl)-ethylcarbamoyl]-methyl}-3-methyl-butyrylamino)-5-(7,7-dimethyl-2-oxo-bicyclo[2.2.1]hept-1-ylmethanesulfonylamino)-4-oxo-pentanoic acid]",6.5 nM,23 nM,3090 nM,1600 nM

# The next lines start with results.
Ki (ICE [1]),IC50 (ICE [2]),IC50 (Ich-2 enzyme),SMILES,IC50 [3]
1.5 nM,11 nM,62000 nM,"CC(C)C(CC(=O)NCCc1c[nH]c2cc(F)ccc12)C(=O)NC(CC(=O)O)C(=O)CNS(=O)(=O)CC12CCC(CC1=O)C2(C)C (centres unmarked) [Example 20, 5-(7,7-Dimethyl-2-oxo-bicyclo[2.2.1]hept-1-ylmethanesulfonylamino)-3-(2-{[2-(6-fluoro-1H-indol-3-yl)-ethylcarbamoyl]-methyl}-3-methyl-butyrylamino)-4-oxo-pentanoic acid]",2450 nM
20.7 nM,360 nM,8660 nM,"CC(C)C(CC(=O)NCCCc1ccccc1)C(=O)NC(CC(=O)O)C(=O)CNS(=O)(=O)CC12CCC(CC1)C2(C)C (centres unmarked) [Example 24, 5-(7,7-Dimethyl-bicyclo[2.2.1]hept-1-ylmethanesulfonylamino)-3-{3-methyl-2-[(3-phenyl-propylcarbamoyl)-methyl]-butyrylamino}-4-oxo-pentanoic acid]",1600 nM
17.5 nM,147 nM,9930 nM,"CC(C)C(CC(=O)NCCCc1ccc2ccccc2n1)C(=O)NC(CC(=O)O)C(=O)CNS(=O)(=O)CC12CCC(CC1=O)C2(C)C (centres unmarked) [Example 27, 5-(7,7-Dimethyl-2-oxo-bicyclo[2.2.1]hept-1-ylmethanesulfonylamino)-3-{3-methyl-2-[(3-quinolin-2-yl-propylcarbamoyl)-methyl]-butyrylamino}-4-oxo-pentanoic acid]",1000 nM
24.5 nM,113 nM,4790 nM,"CC(C)C(CC(=O)NCCCc1cccnc1)C(=O)NC(CC(=O)O)C(=O)CNS(=O)(=O)CC12CCC(CC1=O)C2(C)C (centres unmarked) [Example 29, 5-(7,7-Dimethyl-2-oxo-bicyclo[2.2.1]hept-1-ylmethanesulfonylamino)-3-{3-methyl-2-[(3-pyridin-3-yl-propylcarbamoyl)-methyl]-butyrylamino}-4-oxo-pentanoic acid]",1900 nM
0.4 nM,5.9 nM,1240 nM,"CC(C)C(CC(=O)NCCc1cn(C)c2ccccc12)C(=O)NC(CC(=O)O)C(=O)CNS(=O)(=O)CC12CCC(CC1=O)C2(C)C (centres unmarked) [Example 31, 5-(7,7-Dimethyl-2-oxo-bicyclo[2.2.1]hept-1-ylmethanesulfonylamino)-3-(3-methyl-2-{[2-(1-methyl-1H-indol-3-yl)-ethylcarbamoyl]-methyl}-butyrylamino)-4-oxo-pentanoic acid]",240 nM
